Measured values taken from US6451548B1, “Methods for screening for specific inhibitors of trap and identifying compounds for treatment of diseases or conditions resulting in increased bone resorption using activated TRAP” (Biovitrum AB, priority 1998, dated 2002).
Like-named read-outs stand apart in the source and are kept apart here. Where no end group is shown, it is not given here. [ ]: non-standard residue; d: D form. pY = N[C@@H](Cc1ccc(OP(=O)(O)O)cc1)C(=O)O; pT = C[C@@H](OP(=O)(O)O)[C@H](N)C(=O)O; pS = N[C@@H](COP(=O)(O)O)C(=O)O

Legend:
[1] = target: T1, intact recombinant TRAP (baculoTRAP) (Rattus norvegicus, UniProt P29288); experiment: Preincubation with reducing agents, intact recombinant TRAP; type: biochemical; details: ascorbate 1 mM in the presence of 0.1 mM FeCl3
T1 construct: made in house
T1 sequence (P29288 23-327): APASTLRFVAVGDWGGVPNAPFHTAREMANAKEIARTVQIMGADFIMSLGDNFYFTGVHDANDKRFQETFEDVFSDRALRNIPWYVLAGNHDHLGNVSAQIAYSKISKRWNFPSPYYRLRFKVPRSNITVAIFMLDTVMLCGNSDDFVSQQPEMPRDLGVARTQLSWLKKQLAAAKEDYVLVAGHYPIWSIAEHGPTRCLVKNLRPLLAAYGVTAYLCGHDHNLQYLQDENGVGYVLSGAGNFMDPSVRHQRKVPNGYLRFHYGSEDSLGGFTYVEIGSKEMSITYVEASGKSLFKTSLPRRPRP
Protocol: (§1) P-nitrophenylphosphosphatase activity was assayed in 96-well plates using the p-nitrophenylphosphate (pNPP) as substrate in the incubation medium (150 μl) containing (final concentrations); 10 mM pNPP, 0.1 M sodium acetate pH 5.8, 0.15 M KCl, 0.1% Triton X-100, 10 mM sodium tartrate, 1 mM ascorbic acid and 0.1 mM FeCl3. The p-nitrophenol liberated after 1 hour of incubation at 37° C. was converted into p-nitrophenylate by the addition of 100 μl of 0.3 M NaOH, and the absorbance was read at 405 nm. For absorbance reading a Spectramax 250 spectrophotometer (Molecular Devices, Sunnyvale, Calif.) was used.
(§2) c) BaculoTRAP digested with papain or trypsin were compared with undigested baculoTRAP and bone TRAP. Ascorbic acid and FeCl3 were used as reducing agents during preincubation of TRAP for indicated time intervals in a total volume of 70 μl with (final concentrations); 1 mM ascorbic acid, 0.1 mM FeCl3, 0.15 M KCl, 10 mM sodium tartrate, 0.1% Triton X-100. Except for a substrate incubation time of 10 min, TRAP activity was measured after the addition of 80 μl of substrate solution as described under Materials and Methods.

[2] = target: T2, rat bone TRAP (Rattus norvegicus, UniProt P29288); experiment: Preincubation with reducing agents, bone TRAP; type: biochemical
T2 construct: from tissue; host or cells: long bones of 3 week old Sprague Dawley rats
T2 sequence (P29288 23-327): T1 sequence (P29288 23-327)
T2 sequence (P29288 184-327): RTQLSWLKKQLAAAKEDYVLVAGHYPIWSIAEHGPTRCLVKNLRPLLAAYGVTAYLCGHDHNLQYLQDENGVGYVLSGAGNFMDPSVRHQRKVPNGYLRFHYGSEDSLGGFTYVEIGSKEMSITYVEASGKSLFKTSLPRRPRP
Protocol: as §1, §2

[3] = system: BacTRAP + Cath. B; experiment: pNPP hydrolysis by cathepsin B-digested recombinant TRAP; type: biochemical, rat
Protocol: as §1
(§3) 1 U of p-nitrophenylphosphatase activity corresponds to 1 μmole of p-nitrophenol liberated per minute at 37° C. […] The substrates were dissolved in incubation medium containing the same buffer as in the pNPP-assay. After 1 hour of incubation (final volume 50 μl) at 37° C. the assay was stopped by addition of 50 μl of color reagens (0.12% Malachite-green in 3 M H2SO4/7.5% ammomium molybdate/11% Tween-20; 10:2.5:0.2). […] After color development for 10 min the absorbance at 630 nm was measured using a Spectramax 250 spectrophotometer.
(§4) Incubation was performed at room temperature for 1 h with the suspension kept well mixed during the reaction period. The proteolytic digestions above were stopped by centrifugation and the cleavage products of TRAP in the supernatant were further analyzed. […]

[4] = target: T3, recombinant rat TRAP (BacTRAP) (Rattus norvegicus, UniProt P29288); experiment: pNPP hydrolysis by untreated recombinant TRAP; type: biochemical
T3 construct: made in house
T3 sequence (P29288 23-327): T1 sequence (P29288 23-327)
Protocol: as §1
(§5) 1 U of p-nitrophenylphosphatase activity corresponds to 1 μmole of p-nitrophenol liberated per minute at 37° C. […] The substrates were dissolved in incubation medium containing the same buffer as in the pNPP-assay. After 1 hour of incubation (final volume 50 μl) at 37° C. the assay was stopped by addition of 50 μl of color reagens (0.12% Malachite-green in 3 M H2SO4/7.5% ammomium molybdate/11% Tween-20; 10:2.5:0.2). A phosphate standard curve […] was always run in parallel. After color development for 10 min the absorbance at 630 nm was measured using a Spectramax 250 spectrophotometer.

[5] = target: T4, BacTRAP + papain (Rattus norvegicus, UniProt P29288); experiment: pNPP hydrolysis by papain-digested recombinant TRAP; type: biochemical
T4 construct: made in house; host or cells: recombinant Baculovirus-infected cells; then digested with papain-agarose
T4 sequence (P29288 23-327): T1 sequence (P29288 23-327)
T4 sequence (P29288 184-327): T2 sequence (P29288 184-327)
Protocol: as §1, §5
Proteolytic Digestion of TRAP 25 μg baculoTRAP or bone TRAP were digested with […] papain-agarose in 500 μl of incubation solution; 10 mM sodium acetate, pH 4.6, 0.1% Triton X-100 and 2 mM DTT. Incubation was performed at room temperature for 24 h, with constant mixing of the gel. 25 μg baculo TRAP or bone TRAP were digested with 100 μl (5units) trypsin-agarose in 500 μl of incubation solution; 10 mM Tris pH 7.0 and 0.1% Triton X-100.
Incubation was performed at room temperature for 1 h with the suspension kept well mixed during the reaction period. The proteolytic digestions above were stopped by centrifugation and the cleavage products of TRAP in the supernatant were further analyzed. Digestion of baculo TRAP or bone TRAP with cathepsin B were performed at (final concentrations); 10 ng TRAP/μl, 0.4 mU cathepsin B/μl, 2 mM DTT, 50 mM sodium acetate and 1 mM EDTA, pH 5.5. The incubations were performed at 37° C. for 24 h and digestions were stopped with protease inhibitor cocktail Complete according to the instructions of the manufacturer.

[6] = target: T5, TRAP isolated from rat bone (BoneTRAP) (Rattus norvegicus, UniProt P29288); experiment: Substrate specificity of bone TRAP (phosphatase assay); type: biochemical; details: for Ratio Bone/Bac: Kcat/Km BoneTRAP over BacTRAP
T5 construct: from tissue; host or cells: long bones of 3 week old Sprague Dawley rats
T5 sequence (P29288 23-327): T1 sequence (P29288 23-327)
T5 sequence (P29288 184-327): T2 sequence (P29288 184-327)
Protocol: (§6) The substrates were dissolved in incubation medium containing the same buffer as in the pNPP-assay. […] A phosphate standard curve […] was always run in parallel. […] In order to validate whether the structural alterations induced by proteolytic cleavage of the monomeric TRAP was generally affecting known substrates for TRAP and not restricted to the non-physiological substrate pNPP, we surveyed a number of different phosphoaminoacids, phosphopeptides and the phosphoprotein osteopontin as substrates for the TRAPs (See Table II).

[7] = target: T6, recombinant rat TRAP produced using Baculovirus expression system (BacTRAP) (Rattus norvegicus, UniProt P29288); experiment: Substrate specificity of recombinant TRAP (phosphatase assay); type: biochemical
T6 construct: made in house
T6 sequence (P29288 23-327): T1 sequence (P29288 23-327)
Protocol: as §6

[8] = target: T7, BoneTRAP (Rattus norvegicus, UniProt P29288); experiment: pNPP hydrolysis by bone TRAP; type: biochemical; details: BoneTRAP untreated
T7 construct: from tissue; host or cells: long bones of 3 week old Sprague Dawley rats
T7 sequence (P29288 23-327): T1 sequence (P29288 23-327)
T7 sequence (P29288 184-327): T2 sequence (P29288 184-327)
Protocol: Bone TRAP was purified from the long bones of 40 3 week old Sprague Dawley rats. All operations were performed at 4° C. The dissected bones, free from soft tissue, were cut into small pieces and placed in homogenization solution with protease inhibitors (3 ml/g bone); 0.15 M KCl, 0.1% Triton X-100, Pefabloc (1 mg/ml), Pepstatin A (10 μg/ml), E-64 (10 μg/ml) and 5 mM EDTA. A Polytron homogenizer (Brinkman Instruments Westbury, N.Y.) was used for homogenization during 10 seconds, with 1 minute intervals, until a homogenous suspension was achieved. The homogenate was cleared by centrifugation at 3,200×g for 30 min. 5 % protamine sulfate was added dropwise to the supernatant during continous stirring to a final concentration of 0.5%, with further stirring for 30 min. […]
as §1, with “used. […]” for “used.”

[9] = system: BacTRAP + trypsin; experiment: pNPP hydrolysis by trypsin-digested recombinant TRAP; type: biochemical, rat
Protocol: as §1
as §3, with “spectrophotometer. […]” for “spectrophotometer.”
as §4

[10] = Kcat/Km relative to pT = 1.0, BoneTRAP
[11] = Kcat/Km relative to pT = 1.0, BacTRAP

Ratio Bone/Bac [6] | Ratio (BoneTRAP) [6, 10] | Ratio (BacTRAP) [7, 11] | Compound | further results
4.2 | 15 | 50 | EDEE[pS]EDEE | 
15 | 15 | 14 | FRI[pS]HELDS | 
17 | 2360 | 1875 | OPN: acidic phospho-seryl protein osteopontin purified from bovine milk | 
5.0 | 10 | 2.8 | RRA[pT]VA | 

The remaining lines, values behind:

Compound | Ratio Bone/Bac [6] | Ratio (BoneTRAP) [6, 10] | Ratio (BacTRAP) [7, 11] | further results
O=C1O[C@H]([C@@H](O)CO)C(O)=C1O [ascorbate, ascorbic acid] |  |  |  | effect of prolonged pre-incubation on TRAP activity [1]: did not show this tendency for inactivation; effect of prolonged pre-incubation on TRAP activity ([2]; ascorbate 1 mM in the presence of 0.1 mM FeCl3): time-dependent inactivation; time to maximal activation ([2]; pre-incubation with ascorbate 1 mM, 0.1 mM FeCl3): ≤ 10 min
O=[N+]([O-])c1ccc(OP(=O)(O)O)cc1 [pNPP, p-nitrophenylphosphate] | 8.8 |  |  | Km [3]: 900 µM; Km ([4]; pNPP hydrolysis, BacTRAP untreated): 3100 µM; pH-optimum of pNPP hydrolysis ([4]; recombinant TRAP as isolated): 4.5-5.0 pH; Km ([5]; pNPP hydrolysis, BacTRAP + papain): 1000 µM; increase in the ratio kcat/Km ([5]; papain-cleaved recombinant TRAP compared to untreated monomeric TRAP): 10 fold; decrease in the Km for pNPP ([5]; papain-cleaved vs untreated recombinant TRAP): 3 fold; optimal pH of pNPP hydrolysis ([5]; recombinant TRAP cleaved with papain): 5.5-6.0 pH; Ratio (BoneTRAP) [6]: 690; Ratio (BacTRAP) [7]: 1075; Km [8]: 1000 µM; Km [9]: 2100 µM
N[C@@H](COP(=O)(O)O)C(=O)O [pS, phosphoserine] | 22 | 2.0 | 1.2 | 
C[C@@H](OP(=O)(O)O)[C@H](N)C(=O)O [pT, Phosphothreonine] | 14 | 1.0 | 1.0 | 
N[C@@H](Cc1ccc(OP(=O)(O)O)cc1)C(=O)O [pY, phosphotyrosine] | 19 | 350 | 250 | 
DADE(pY)LIPQQG | 18 | 640 | 475 | 
END[pY]INASL | 10 | 280 | 375 | 
